Measured values: US20210227869A1, “Formula with a specific beta-lactoglobulin peptide” (N.V. Nutricia, priority 2018, published 2021)

Legend:
[1] = system: cow's milk-specific T-cell line TCL A; test: T-cell proliferation assay; type: cell-based, human; settings: synthetic peptide, SI≥2 considered positive, FIG. 2
Procedure: (§1) Synthetic peptides were obtained from JPT technologies. Only peptides containing at least 9 AAs were taken into account, as this is the minimal size for binding to MHC class II molecules and subsequent T-cell recognition (Holland et al, Front Immunol 2013 Jul. 1; 4:172.) Synthetic peptides (JPT technologies) identical to the peptides identified in all batches of the HP of example 1 were dissolved in dimethylsulfoxide (Sigma Aldrich) at a concentration of 5.3 mM. The peptides were tested on cow's milk-specific T-cell lines (TCLs) from three different donors. The peptides were tested on cow's milk protein-specific T-cell lines (TCLs) from three infant donors, diagnosed with cow's milk protein allergy. […] Proliferation was determined as described previously (Ruiter et al, Clin Exp Allergy 2006, 36(3):303-310). Stimulation indexes (Sls, ratio between proliferation of allergen/peptide-stimulated and non-stimulated T cells) were calculated and a SI≥2 was considered positive.
(§2) To confirm that the peptides identified in HP were recognized by T cells, synthetic peptides identical to these identified peptides were tested on cow's milk-specific human TCLs. As there was a considered overlap between the identified peptides, five peptides were tested (Table 7) that were identified in all batches and differed with more than 9A from each other. All tested peptides were able to induce proliferation (FIG. 2). […] This was also seen with the in silico prediction data (data not shown). […] As peptide LIV . . . […] SLL (AA #1-32) did, the region containing AA #28-32 (DISLL) was essential for the response of TCL A. Unexpectedly, TCL C recognized peptide LIV . . . AAS (AA #1-27), while the longer peptide containing the same sequence with 5 additional AAs, LIV . . .

[2] = system: cow's milk-specific T-cell line TCL C; test: T-cell proliferation assay; type: cell-based, human; settings: synthetic peptide, SI≥2 considered positive, FIG. 2
Procedure: as §1, §2

Sequence | T cell proliferation (stimulation index) [1] | T cell proliferation (stimulation index) [2]
LIVTQTMKGLDIQKVAGTWYSLAMAAS (beta-lactoglobulin peptide fragment) [SEQ ID NO: 9] | not able to induce proliferation | recognized
LIVTQTMKGLDIQKVAGTWYSLAMAASDISLL (beta-lactoglobulin peptide fragment) [SEQ ID NO: 11] |  | not able to induce a proliferative response
